Assay results from paper PMC9655874, “Analysis of Volatile Secondary Metabolites in Ocimum basilicum Cell Suspensions: Inhibition, In Silico Molecular Docking, and an ADMET Analysis against Proteolytic Enzymes of Rhynchophorus ferrugineus” (Plants, 2022).
≈ marks a conversion by molar mass, not a printed value.

Columns and labels:
[1] = target: elastase of R. ferrugineus midgut; assay: Serine proteinase specific activity, elastase (in vitro); format: biochemical, Rhynchophorus ferrugineus; conditions: 4th instar midgut homogenate
[2] = tested on: R. ferrugineus 4th larvae; assay: Topical application (contact insecticide) to fourth instar larvae; format: in vivo, Rhynchophorus ferrugineus; conditions: for LD50 (µg/Larvae) 95% CF: 4th larvae, topical, 95% confidence limits in brackets; for LD50: larvae
Method: (§1) Cells were suspended in the methanolic extract at serially increasing concentrations for 40 days. To dilute the compounds, TritonX-100 (0.1%) was added to acetone after the chemicals were dissolved. Adults or larvae of R. ferrugineus were purchased. They were then cultured using long lengths of sugar cane stem. The extracts’ anti-larvae action was assessed by applying topically to larvae and keeping them at 4–5 °C for 5 min. Utilizing a manually controlled micro-applicator, each larva had extract injected into its dorsum in three separate 10 µL doses using a 50-ll micro-syringe from Hertfordshire, UK’s Burkard Manufacturing Co., Ltd. (MS-N50; Shizuoka, Japan’s Ito Corp.). Five larvae in a box with three replications were fed on portions of long sugarcane stem measuring 10 cm. […] The sugarcane stem’s ten-centimeter-long portions cut into equal longitudinal halves were used to measure the antifeedant activity against adults. Long sections of sugarcane stem with a surface area of approximately 32.2 cm^2 were dried in air at room temperature, assuming a dipping time of 10 s and an initial serial concentration of (10 mL). Each treated object remained in a plastic container. Each box included an additional pair (male and female). Each therapy was administered ten times. In total, 24-, 48-, 72-, and 96-h feeding observations were assessed.
(§2) Statistics and probit analysis were performed using SPSS 25.0, as mentioned by Finney. To sum up, all numerical predictions of toxicity variables and findings were presented as the mean ± SE. We regressed mortality and translated the resulting dosage to an LC50 value (µg/mL). […] Enzyme activity data were analyzed using an ANOVA. Means were separated using the SNK (Student–Newman–Keuls) test, and deviations at the p ˂ 0.05 level were considered noteworthy.

[3] = target: metalloprotease of R. ferrugineus midgut; assay: Metalloproteinase specific activity, CEGR substrate (in vitro); conditions: 4th instar midgut homogenate
Method: (§4) The ten midgut larvae from the fourth stage were neatly eliminated, dissected, and repeatedly washed with 0.9% NaCl solution. A 500 µL protease test solution, including 50 mM HEPS, 0.1% Triton X-100, and 5 mM DTT (pH 8.0), was utilized to homogenize the midgut instar. The homogenates were then centrifuged employing a Sigma 3k30 (cooling centrifuge) at 5000 rpm for 30 min to evaluate the supernatant’s enzyme activity and protein content. Before introducing CEGR (125 µL, 2% (w/v)), each experiment’s supernatant (10 µL) was incubated in an assay buffer (60 µL) at 37 °C for 20 min (pH 8). During a 10 min incubation period without a substrate, 10 µL enzyme samples were tested (20 min. for EDTA, EGTA, 1.10, Phenanthroline). After 180 min at 37 °C, 300 µL of cold TCA, 10% (v/v), was used to terminate the reaction. For the next 20 min, the mixture was spun (5000 rpm, Sigma 3K30). The absorbance was measured at 450 nm after mixing the supernatant with hydroxide solution (10 µL, 10 N) using an ELISA reader. An enzyme-free assay combination was utilized as a blank, and particular activity was evaluated utilizing the OD493 mg^−1 protein min^−1 and an enzyme-free blank specimen.
(§5) An experiment that was set up free of potential inhibitors served as a control. An ELISA plate fast reader measured the enzymes’ absorption at various wavelengths. For each inhibitor, the control enzyme’s percentage activity was assessed for each enzyme. Four instars midgut larvae were treated with previous concentrations of extracts or compounds, assessed as previously mentioned, to measure the protease activity in vivo. Larvae were subjected to extract- and compound-treated leaf discs for 24 h.

[4] = target: trypsin proteinase of R. ferrugineus midgut; assay: Serine proteinase specific activity, trypsin (in vitro); conditions: 4th instar midgut homogenate
Method: (§6) We used a serine protease assay buffer and a modified version of the fast microplate method to analyze the serine proteinase’s specific activity in mixtures (150 µL) [26]. […] The sample (10 µL) was diluted using an assay buffer to 50 µL to determine the presence of trypsin proteinase, chymotrypsin proteinase, and elastase. Assay buffer was used to dilute stock substrates of BAρNA (100 mg/mL DMSO), both SAAPFρNA and SAAPLρNA (100 mg/mL DMF), to 1.0 mg/mL. To halt the reaction after 15 min of incubation at 37 °C, 50 µL of acetic acid (30%, v/v) was added. The intensity of the activity was measured using a 405 nm ELISA plate reader. A denaturation enzyme was used in place of an active enzyme in the experiment mixture. For three substrates (SAAPLρNA, BAρNA, and SAAPFρNA), activity levels of certain proteinases were assessed as OD mg^−1 protein min^−1.
as §5

[5] = tested on: total proteases of R. ferrugineus midgut; assay: Total protease activity in midgut of treated larvae (in vivo); conditions: larvae treated 24 h, midgut preparation
Method: (§7) The homogenate of R. ferrugineus 4th midgut instar larvae (lab strain) was assayed for total proteolytic enzyme activity using azocasein, as Darrag et al. [26], with modifications. Ten 4th midgut larval homogenates were carefully removed, incised, and then rinsed in a solution containing 0.9% NaCl before even being homogenized in a buffer (500 µL) containing 5 mM dithiothreitol (DTT), 0.1% (v/v) Triton X-100, and 50 mM N-2-hydroxyethyl piperazine-N′-2-ethane sulphonic acid (HEPS), and 8.0 pH. It was spun in a centrifuge (Sigma 3k30), and the remaining homogenates were from a preliminary phase for 30 min at 5000 rpm. Using the supernatants, the protein concentration and proteolytic enzyme activity were determined. […] Before each reaction experiment, 40-day-old methanolic extract of cell suspension, pure chemicals, and 10 μL of enzyme specimens were incubated for 10 min. The addition of the substrate initiated the reaction, which was allowed for 20 min in the case of leupeptin before being terminated 180 min later by adding 300 µL of cold tri-chloroacetic acid (TCA) (10%, v/v). Twenty minutes were spent centrifuging the mixture at 5000 rpm (Sigma 3k30). Overall, 10 µL of NaOH (10 N) was added to the supernatant, and the absorbance was measured using an ELISA plate reader at 450 nm to quantify the enzymes’ specific activity as OD450/mg protein/h.
as §5

[6] = tested on: elastase of R. ferrugineus midgut; assay: Elastase activity in midgut of treated larvae (in vivo); set-up: species or system Rhynchophorus ferrugineus; conditions: larvae treated 24 h, midgut preparation
[7] = tested on: metalloprotease of R. ferrugineus midgut; assay: Metalloprotease activity in midgut of treated larvae (in vivo); conditions: larvae treated 24 h, midgut preparation
Method: as §4, §5

[8] = tested on: R. ferrugineus adults; assay: whole plant or invertebrate; format: in vivo; conditions: Rhynchophorus ferrugineus, read-out: LC50 (µg/mL) 95% CF
Method: as §1, §2

[9] = target: total proteases of R. ferrugineus midgut; assay: Total proteolytic enzyme activity of 4th instar midgut homogenate, azocasein (in vitro)
Method: as §7, §5

[10] = tested on: cysteine protease of R. ferrugineus midgut; assay: Cysteine protease activity in midgut of treated larvae (in vivo); set-up: species or system Rhynchophorus ferrugineus; conditions: larvae treated 24 h, midgut preparation
Method: (§3) Utilizing the substrate N-benzoyl-Phe-Val-Arg-p-nitroanilide hydrochloride and certain modifications, the cysteine proteinases of R. ferrugineus homogenate from the fourth midgut instar was tested for activity. Ten larvae of the fourth midgut were carefully taken out, dissected, and periodically washed with 0.9% (w/v) NaCl solution, assay buffer containing 50 mM HEPS, 5 mM DTT, and 0.1% Triton X-100 (v/v) (pH 8.0, 500 µL) was used to homogenize the samples. The homogenates were spun using a cooling Sigma 3k30 centrifuge for 30 min at 5000 rpm. […] Before introducing 100 µL of the substrate, 10 µL of the supernatant was incubated in assay buffer (60 µL, pH = 8) at 37 °C for 30 min. Enzyme samples in 10 µL were incubated for 10 min with iodoacetic acid before the addition of the substrate. […] The absorbance at 520 nm was measured after spinning the reaction for 6 min at 5000 rpm. The activity in the midgut was assayed at OD520.60 min^−1 mg^−1 of protein with an ELISA rapid reader.

[11] = target: cysteine protease of R. ferrugineus midgut; assay: Cysteine proteinase activity (in vitro); format: biochemical, Rhynchophorus ferrugineus; conditions: 4th instar midgut homogenate
Method: as §3

[12] = tested on: trypsin proteinase of R. ferrugineus midgut; assay: Trypsin activity in midgut of treated larvae (in vivo); conditions: larvae treated 24 h, midgut preparation
Method: as §6, §5

Compound | IC50 elastase (in vitro) [1] [µg/mL] | LD50 (µg/Larvae) 95% CF [2] | LD50 [2] [µg/larva] | LD50 ([2]; topical application) [µg/larva] | IC50 metalloprotease (in vitro) [3] [µg/mL] | IC50 trypsin proteinase (in vitro) [4] [µg/mL] | IC50 total proteases (in vivo) [5] [µg/mL] | IC50 elastase (in vivo) [6] [µg/mL] | IC50 metalloprotease (in vivo) [7] [µg/mL] | LC50 [8] [µg/mL] | IC50 total proteases (in vitro) [9] [µg/mL] | IC50 cysteine protease (in vivo) [10] [µg/mL] | IC50 cysteine protease (in vitro) [11] [µg/mL] | IC50 trypsin proteinase (in vivo) [12] [µg/mL]
CC12CCC(CC1)C(C)(C)O2 [1,8-cineole] | 119.4 (≈ 774 µM) | 13.9 (12.8–14.7) µg/Larvae | 13.9 | 13.9 | 708.2 (≈ 4590 µM) | 271.2 (≈ 1760 µM) | 193.1 (≈ 1250 µM) | 256.3 (≈ 1660 µM) | 1297.2 (≈ 8410 µM) | 1430 (≈ 9240 µM) | 91.5 (≈ 593 µM) |  |  | 
C=CCc1ccc(O)c(OC)c1 [eugenol] | 165.7 (≈ 1010 µM) | 14.2 (13.1–15.4) µg/Larvae | 14.2 | 14.2 | 478.6 (≈ 2910 µM) | 247.2 (≈ 1510 µM) | 201.4 (≈ 1230 µM) | 346.8 (≈ 2110 µM) |  | 1460 (≈ 8890 µM) | 97.6 (≈ 594 µM) | 453.1 (≈ 2760 µM) | 294.4 (≈ 1790 µM) | 612.8 (≈ 3730 µM)
C=CC(C)(O)CCC=C(C)C (centres unmarked) [linalool] | 104.2 (≈ 676 µM) | 13.7 (12.6–14.8) µg/Larvae | 13.7 | 13.7 | 278.2 (≈ 1800 µM) | 63.4 (≈ 411 µM) | 192.7 (≈ 1250 µM) | 217.2 (≈ 1410 µM) |  | 1400 (≈ 9060 µM) | 90.7 (≈ 588 µM) | 348.2 (≈ 2260 µM) | 189.2 (≈ 1230 µM) | 137.5 (≈ 891 µM)
C=C(C)C1CCC(C)(O)CC1 (stereo not drawn) [β-terpineol] | 112.6 (≈ 730 µM) | 42.6 (39.7–44.3) µg/Larvae |  | 42.6 | 543.5 (≈ 3520 µM) | 168.4 (≈ 1090 µM) | 379.5 (≈ 2460 µM) | 239.4 (≈ 1550 µM) | 1175.2 (≈ 7620 µM) | 3920 (≈ 25400 µM) | 281.7 (≈ 1830 µM) | 427.4 (≈ 2770 µM) | 287.3 (≈ 1860 µM) | 237.1 (≈ 1540 µM)
